Assay results taken from patent publication US20210137960A1, “COMPOSITIONS AND METHODS FOR INHIBITION OF NUCLEAR-PENETRATING ANTIBODIES” (Yale University, priority 2018, published 2021).
Numbering of substitutions follows the chain as printed. Like-named read-outs stand apart in the source and are kept apart here.

B1: variant 10: humanized 3E10 variant, SEQ ID NOS:14, 22, and 32 (protein)
chain 1: EVQLVESGGGLVQPGGSLRLSCAASGFTFSNYGMHWVRQAPGKGLEWVSYISSSSSTIYYADSVKGRFTISRDNAKNSLYLQMNSLRAEDTAVYYCARRGLLLDYWGQGTTVTVSS
chain 2: DIQMTQSPSSLSASVGDRVTITCRASKSVSTSSYSYMHWYQQKPGKAPKLLIKYASYLESGVPSRFSGSGSGTDFTLTISSLQPEDFATYYCQHSREFPWTFGQGTKVEIK
chain 3: DIQMTQSPSSLSASVGDRVTITCRASKSVSTSSYSYMHWYQQKPGKAPKLLIKYASYLESGVPSRFSGSGSGTDFTLTISSLQPEDFATYYCQHSREFPWTFGQGTKVEIKRADAAPGGGGSGGGGSGGGGSEVQLVESGGGLVQPGGSLRLSCAASGFTFSNYGMHWVRQAPGKGLEWVSYISSSSSTIYYADSVKGRFTISRDNAKNSLYLQMNSLRAEDTAVYYCARRGLLLDYWGQGTTVTVSSASTKGPSVFPLAPLESSGSDIQMTQSPSSLSASVGDRVTITCRASKSVSTSSYSYMHWYQQKPGKAPKLLIKYASYLESGVPSRFSGSGSGTDFTLTISSLQPEDFATYYCQHSREFPWTFGQGTKVEIKRADAAPGGGGSGGGGSGGGGSEVQLVESGGGLVQPGGSLRLSCAASGFTFSNYGMHWVRQAPGKGLEWVSYISSSSSTIYYADSVKGRFTISRDNAKNSLYLQMNSLRAEDTAVYYCARRGLLLDYWGQGTTVTVSS
B2: variant 13: humanized 3E10 variant, SEQ ID NOS:17, 23, and 35, expressed in a CHO cell system (protein)
chain 1: B1 chain 1 with S54G
chain 2: B1 chain 2 with V15L, V19A, S28T, K46Q, A47P, F87A, Q104G
chain 3: DIQMTQSPSSLSASLGDRATITCRASKTVSTSSYSYMHWYQQKPGQPPKLLIKYASYLESGVPSRFSGSGSGTDFTLTISSLQPEDAATYYCQHSREFPWTFGGGTKVEIKRADAAPGGGGSGGGGSGGGGSEVQLVESGGGLVQPGGSLRLSCAASGFTFSNYGMHWVRQAPGKGLEWVSYISSGSSTIYYADSVKGRFTISRDNAKNSLYLQMNSLRAEDTAVYYCARRGLLLDYWGQGTTVTVSSASTKGPSVFPLAPLESSGSDIQMTQSPSSLSASLGDRATITCRASKTVSTSSYSYMHWYQQKPGQPPKLLIKYASYLESGVPSRFSGSGSGTDFTLTISSLQPEDAATYYCQHSREFPWTFGGGTKVEIKRADAAPGGGGSGGGGSGGGGSEVQLVESGGGLVQPGGSLRLSCAASGFTFSNYGMHWVRQAPGKGLEWVSYISSGSSTIYYADSVKGRFTISRDNAKNSLYLQMNSLRAEDTAVYYCARRGLLLDYWGQGTTVTVSS
B3: 5C6: monoclonal anti-DNA antibody with nucleolytic activity from MRL/lpr lupus mouse model hybridoma (antibody, listed as Mus musculus, V domains shown)
VL: DIVLTQSPASLAAVSLGERATISYRASKSVSTSGYSYMHWNQQKPGQAPRLLIYLVSNLESGVPARFSGSGSGTDFTLNIHPVEEEDAATYYCQHIRELDTFFGGGTKLEIK
VH: QLKLVESGGGLVKPGGSLKLSCAASGFTFSSYTMSWVRQTPAKRLEWVATISSGGGSTYYPDSVKGRFTISRDNARNTLYLQMSSLRSEDTAMYYCARRAYSKRGAMDYWGQGTSVTVSS

Legend:
A549 lung cancer cells = assay: Protein L immunodetection of variant 13 nuclear penetration with importin pathway inhibitors, A549; type: cell-based; settings: 10 μM variant 13 co-incubated with 0, 10, 25, or 50 μM inhibitor
Procedure: (§1) For all experiments, cells were cultivated overnight to allow for attachment, followed by pretreatment with either control medium (absence of inhibitor), or medium containing inhibitor for durations previously-reported in the literature (see Table 5, below).
(§2) For endocytosis inhibition experiments, cells were cultivated in serum-free medium containing 1% v/v BSA to deplete endogenous serum levels. Following preincubation with inhibitors, cells were treated with either control medium or 10 μM variant 13, and the same dose of small molecule inhibitor for a further 30 minutes. For all experiments, cells were washed thrice, followed by immediate fixation with pre-chilled ice-cold ethanol. Subsequently, treated cells were probed using a protein L immunodetection approach to probe variant 13 nuclear uptake (Rattray et al., Biochem Biophys Res Commun 496, 858-864 (2018)). All monolayers were immediately imaged following color development on an Evos Fl microscope.
(§3) DLD-1 and A549 cells were treated with 10 μM variant 13 co-incubated with 0, 10, 25, or 50 μM concentrations of ivermectin. Relative intensity of protein L nuclear staining as compared to amount of stain in cells treated without ivermectin was also quantified by ImageJ.
(§4) DLD-1 cells and A549 cells were treated with 10 μM variant 13 co-incubated with 0, 10, 25, or 50 μM concentrations of importazole and then immunostained for protein L.
(§5) DLD-1 cells and A549 cells were treated with 10 μM variant 13 co-incubated with 0, 10, 25, or 50 μM concentrations of mifepristone and then immunostained for protein L.

DLD1 cancer cells = assay: Uptake of rhodamine-labeled variant 13 in live cells, light and fluorescence microscopy, DLD1; type: cell-based; settings: 50 μM importazole
Procedure: Live DLD1 cancer cells were treated with control or rhodamine-labeled variant 13 (Rh-variant 13)+/−50 μM importazole and were then visualized under light and fluorescence microscopy.

DLD1 cells [1] = assay: SLE sera nuclear import with nuclear import inhibitors, anti-human IgG immunostain; type: cell-based; settings: for effect on nuclear uptake of ANAs in SLE-19: SLE-19 serum
Procedure: DLD1 cells were pre-treated with either control media, or media containing nuclear import inhibitors for four hours. Subsequent co-treatment with inhibitor and patient SLE serum (diluted 1:50) was performed for one hour at 37° C. Following treatment, cells were fixed, blocked and probed with an alkaline-phosphatase anti-human IgG […] antibody overnight (Fisher Scientific). Cell monolayers were washed, and color developed using NBT/BCIP reagent (Fisher Scientific) for the same duration across all experiments. Following chromogen color development, all monolayers were washed, and brightfield images acquired immediately on an Evos F microscope.

DLD1 colon cancer cells = assay: Protein L immunodetection of variant 13 nuclear penetration with importin pathway inhibitors, DLD1; type: cell-based; settings: 10 μM variant 13 co-incubated with 0, 10, 25, or 50 μM inhibitor
Procedure: as §1, §2, §3, §4, §5

DLD1 cells [2] = assay: Nuclear penetration of scleroderma autoantibody SSC and effect of ivermectin, microscopic analysis; type: cell-based
Text: In addition to SLE, cell-penetrating autoantibodies are detected in other autoimmune diseases such as scleroderma. […] SSC was expressed in and purified from HEK293T cells.

MCF7 breast cancer cells = assay: Uptake of rhodamine-labeled variant 13 in live cells, light and fluorescence microscopy, MCF7; type: cell-based; settings: 50 μM ivermectin
Procedure: Live MCF7 breast cancer cells were treated with control or rhodamine-labeled variant 13 (Rh-variant 13)+/−50 μM ivermectin and were then visualized under light and fluorescence microscopy.

cell nuclei [3] = assay: Nuclear penetration of humanized 3E10 variants compared with original 3E10 (D31N) di-scFv; type: cell-based; settings: for Nuclear localizing?: humanized 3E10 variants; for nuclear penetration compared to the prototype: vs original 3E10 (D31N) di-scFv
Text: A range of humanized 3E10 variants were generated with subtle differences in framework and CDR sequences.

cell nuclei [4] = settings: known anti-dsDNA autoantibodies; cited from earlier work

| Molecule | effect on nuclear penetration by variant 13 (A549 lung cancer cells) | effect on nuclear uptake of ANAs in SLE-19 (DLD1 cells [1]) | effect on nuclear penetration by variant 13 (DLD1 colon cancer cells) | Nuclear localizing? (cell nuclei [3]) | nuclear penetration compared to the prototype (cell nuclei [3]) | other results |
| --- | --- | --- | --- | --- | --- | --- |
| CC(Nc1nc(N2CCCC2)nc2ccccc12)c1ccccc1 (centres unmarked) [importazole, N-(1-phenylethyl)-2-pyrrolidin-1-ylquinazolin-4-amine] | reduction in nuclear penetration | inhibit nuclear uptake of ANAs in SLE-19 in a dose-dependent manner | reduction in nuclear penetration |  |  | effect on nuclear uptake of rhodamine-labeled variant 13 (DLD1 cancer cells): inhibited nuclear uptake |
| CC#C[C@]1(O)CC[C@H]2[C@@H]3CCC4=CC(=O)CCC4=C3[C@@H](c3ccc(N(C)C)cc3)C[C@@]21C [mifepristone, 11β-(4-Dimethylamino)phenyl-170-hydroxy-17-(1-propynyl)-estra-4,9-dien-3-one] | reduction in nuclear penetration | inhibit nuclear uptake of ANAs in SLE-19 in a dose-dependent manner | reduction in nuclear penetration |  |  |  |
| 22,23-dihydroavermectin B1a/B1b [ivermectin] | dose-dependent reduction in nuclear penetration |  | dose-dependent reduction in nuclear penetration |  |  | effect on nuclear uptake of SSC (DLD1 cells [2]): inhibited the nuclear uptake of SSC; effect on cellular/nuclear uptake of rhodamine-labeled variant 13 (MCF7 breast cancer cells): inhibited cellular/nuclear uptake; effect on nuclear staining by ANAs in SLE sera (DLD1 cells [1]; SLE-4, 8, 9, and 19 serum diluted 1:50, pre- and co-treatment): reduced the nuclear staining associated with each sample |
| B1 |  |  |  | Yes | penetrated nuclei very well |  |
| B2 |  |  |  | Yes | penetrated nuclei very well |  |
| B3 |  |  |  |  |  | Nuclear localizing? (cell nuclei [4]): Yes |
